# Reference: ChEMBL document CHEMBL1142323, “Inhibition of carbonic anhydrases with glycosyltriazole benzene sulfonamides” (J Med Chem, 2008)
# pKi: −log10 of the molar value.
# Tests used:
# Carbonic anhydrase 9 = Carbonic anhydrase 9 (Homo sapiens, UniProt Q16790)
# Carbonic anhydrase 1 = Carbonic anhydrase 1 (Homo sapiens, UniProt P00915)
# Carbonic anhydrase 2 = Carbonic anhydrase 2 (Homo sapiens, UniProt P00918)
# Sequence of Carbonic anhydrase 1 (P00915 whole entry): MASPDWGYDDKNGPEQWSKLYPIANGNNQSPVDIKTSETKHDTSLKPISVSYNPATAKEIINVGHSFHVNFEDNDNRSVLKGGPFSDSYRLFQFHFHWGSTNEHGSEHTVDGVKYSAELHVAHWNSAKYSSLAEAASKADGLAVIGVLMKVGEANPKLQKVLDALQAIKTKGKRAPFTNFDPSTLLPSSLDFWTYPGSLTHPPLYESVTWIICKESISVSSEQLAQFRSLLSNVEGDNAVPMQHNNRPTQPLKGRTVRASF
SMILES,pKi (Carbonic anhydrase 9),pKi (Carbonic anhydrase 1),pKi (Carbonic anhydrase 2)
COC(=O)[C@H]1O[C@@H](n2cc(-c3ccc(S(N)(=O)=O)cc3)nn2)[C@H](O)[C@@H](O)[C@@H]1O,8.08,–,–
NS(=O)(=O)c1ccc(-c2cn([C@@H]3O[C@H](CO)[C@H](O)[C@H](O)[C@H]3O)nn2)cc1,6.92,8.03,8.06
NS(=O)(=O)c1ccc(-c2cn([C@@H]3O[C@H](CO)[C@@H](O[C@H]4O[C@H](CO)[C@@H](O)[C@H](O)[C@H]4O)[C@H](O)[C@H]3O)nn2)cc1,6.89,–,–
"CC(=O)O[C@H]1[C@H](OC(C)=O)C(n2cc(-c3ccc(S(N)(=O)=O)cc3)nn2)OC[C@H]1OC(C)=O (single isomer, unassigned)",6.87,–,–
CC(=O)OC[C@H]1O[C@@H](n2cc(-c3ccc(S(N)(=O)=O)cc3)nn2)[C@H](OC(C)=O)[C@@H](OC(C)=O)[C@@H]1OC(C)=O,–,5.36,8.04
CC(=O)OC[C@H]1O[C@@H](n2cc(-c3ccc(S(N)(=O)=O)cc3)nn2)[C@H](OC(C)=O)[C@@H](OC(C)=O)[C@@H]1O[C@H]1O[C@H](COC(C)=O)[C@@H](OC(C)=O)[C@H](OC(C)=O)[C@H]1OC(C)=O,6.92,–,–
NS(=O)(=O)c1ccc(-c2cn([C@@H]3O[C@H](CO)[C@@H](O)[C@H](O)[C@H]3O)nn2)cc1,7.05,8.03,6.42
CC(=O)OC[C@H]1O[C@@H](n2cc(-c3ccc(S(N)(=O)=O)cc3)nn2)[C@H](OC(C)=O)[C@@H](OC(C)=O)[C@H]1OC(C)=O,6.96,5.37,8.06
CC(=O)N[C@@H]1[C@@H](OC(C)=O)[C@H](OC(C)=O)[C@@H](COC(C)=O)O[C@H]1n1cc(-c2ccc(S(N)(=O)=O)cc2)nn1,7.00,–,–
"CC(=O)OC[C@H]1OC(n2cc(-c3ccc(S(N)(=O)=O)cc3)nn2)[C@@H](OC(C)=O)[C@@H](OC(C)=O)[C@@H]1OC(C)=O (single isomer, unassigned)",8.30,8.80,8.68
"NS(=O)(=O)c1ccc(-c2cn(C3O[C@H](CO)[C@@H](O)[C@H](O)[C@@H]3O)nn2)cc1 (single isomer, unassigned)",8.27,8.55,8.12
NS(=O)(=O)c1ccc(-c2cn([C@@H]3O[C@H](CO)[C@@H](O)[C@H]3O)nn2)cc1,6.92,–,–
COC(=O)[C@H]1O[C@@H](n2cc(-c3ccc(S(N)(=O)=O)cc3)nn2)[C@H](OC(C)=O)[C@@H](OC(C)=O)[C@@H]1OC(C)=O,8.00,–,–
